Test results: a melting point compilation (Tetko et al.)

| SMILES | melting point |
| --- | --- |
| COC(=O)NC1(C(=O)O)CCCC1 | 131 to 133 °C |
| Cc1cc(NC(N)=S)n(C)n1 | 218 to 220 °C |
| N#Cc1cccc(CS(=O)(=O)NCC(=O)O)c1 | 158 to 160 °C |
| COC(=O)c1ccnc(Cl)c1 | 31 to 33 °C |
| CCC(C)C1NC(C(=O)O)CS1 (configuration not stated) | 177 to 179 °C |
| CS(=O)(=O)c1ccc(C#N)cc1F | 146 to 148 °C |
| O=C(CCl)c1c[nH]c(C(=O)N2CCCC2)c1 | 200 to 204 °C |
| COc1ccc(-c2csc3nc(C)[nH]c(=O)c23)cc1OC | 249 to 251 °C |
| CCCCCNCC(N)=O | 64 to 66 °C |
| Nc1cccnc1Nc1ccc2c(c1)C(=O)NC2=O | 269 to 271 °C |
| CCC(C)C(NC(N)=O)C(=O)O (configuration not stated) | 205 to 207 °C |
| CC(=O)CC(=O)c1cnn(C)c1 | 88 to 90 °C |
| Cc1cccc(C)c1C=O | 27 to 30 °C |
| Nc1nncc(-c2ccc(Cl)s2)n1 | 259 to 261 °C |
| CC(C)CNC(=O)C(C)Cl (configuration not stated) | 37 to 39 °C |
| CC(N)c1ccc(-n2ccnc2)cc1 (configuration not stated) | 50 to 52 °C |
| CSC(=NS(C)(=O)=O)SC | 88 to 90 °C |
| CC(C)c1cc(N)n(C(C)C)n1 | 52 to 54 °C |
| CCN(CC)C(=O)Cc1ccc(N)cc1 | 87 to 89 °C |
| COC(=O)CNC(=O)Cc1ccc(N)cc1 | 93 to 95 °C |
| CS(=O)(=O)Nc1ccc(F)cc1C(=O)O | 204 to 206 °C |
| NS(=O)(=O)c1ccc(NC(=O)C(=O)O)cc1 | 259 to 261 °C |
| CS(=O)(=O)c1cccs1 | 43 to 45 °C |
| Clc1nccn2nnnc12 | 99 to 101 °C |

| SMILES | melting point |
| --- | --- |
| COc1ccnc(NCC(=O)O)n1 | 190 to 192 °C |
| Nc1nc(-c2ccc(F)cc2)ns1 | 154 to 156 °C |
| O=C(O)c1sccc1C1CC1 | 169 to 171 °C |
| Cc1c(C(=O)O)cnn1Cc1ccccc1 | 172 to 174 °C |
| O=C1CNC(=O)N1c1cccc([N+](=O)[O-])c1 | 164 to 166 °C |
| CNS(=O)(=O)Cc1ccc(C#N)cc1 | 154 to 158 °C |
| O=C1NC(=O)C(CCS)N1 (configuration not stated) | 133 to 135 °C |
| O=C(O)CCN1C(=O)C(=Cc2ccc(F)cc2)SC1=S | 135 to 137 °C |
| COc1ccc(CCNC(C)=O)cc1S(N)(=O)=O | 194 to 196 °C |
| CC(Sc1ccc(C#N)cc1)C(=O)O (configuration not stated) | 114 to 116 °C |
| CCOc1ccc(OCCCC(=O)O)cc1 | 104 to 106 °C |
| CCOC(=O)c1nc2c(s1)NCCCC2 | 144 to 146 °C |
| CN(C)S(=O)(=O)c1ccc(C#N)cc1 | 128 to 130 °C |
| Cc1ccc(Cl)c2c1NC(=O)C2=O | 275 to 277 °C |
| O=C(O)CCNC(=O)C1CCCC1 | 128 to 130 °C |
| COc1ccc(C(=O)NCC(=O)O)cc1 | 165 to 167 °C |
| CCOc1ccc(N)cc1S(=O)(=O)N(C)C | < 17 °C |
| Nc1ccc(Sc2nncs2)c(Cl)c1 | 112 to 114 °C |
| O=C(O)C1CC12CCCc1ccccc12 (configuration not stated) | 161 to 163 °C |
| COc1ccc(S(=O)(=O)N2CCCCCC2)cc1N | 118 to 119 °C |
| CCOC(=O)c1c(N)nn2cc[nH]c12 | 168 to 170 °C |
| CC1CCc2c(C(=O)O)csc2C1 (configuration not stated) | 178 to 180 °C |
| O=[N+]([O-])c1ccc2[nH]c3c(c2c1)CCCC3 | 172 to 174 °C |
| Nc1ccc2c(c1)COC2 | 89 to 91 °C |

| SMILES | melting point |
| --- | --- |
| COc1cc(C)nc(Cl)n1 | 35 to 37 °C |
| CC(=O)NCc1ccc(-c2nc(N)sc2C)s1 | 154 to 156 °C |
| O=Cc1ccc(-c2ccc(F)cc2)o1 | 79 to 81 °C |
| CC(=O)c1cc(C#N)c(SCC(=O)O)nc1C | 187 to 189 °C |
| NC(=O)N1CC=C(c2ccc(O)cc2)CC1 | 244 to 246 °C |
| NS(=O)(=O)c1ccc(CNC(=O)OCC(F)(F)F)cc1 | 150 to 152 °C |
| O=S1(=O)CCC(NC2CCNCC2)C1 (configuration not stated) | 84 to 86 °C |
| COc1cc(C)c(S(=O)(=O)Cl)cc1C | 98 to 100 °C |
| O=C(O)c1cc(-c2cc(F)ccc2F)no1 | 187 to 189 °C |
| O=C(O)c1c(O)cccc1Cl | 166 to 168 °C |
| CCOC(=O)C1CC(=O)NN1c1ncccc1Cl (configuration not stated) | 135 to 137 °C |
| CCN(CC)S(=O)(=O)c1ccc(N2CCNCC2)c([N+](=O)[O-])c1 | 131 to 133 °C |
| Nc1ccc(S(=O)(=O)N2CCCC2)cc1 | 164 to 166 °C |
| O=C(O)c1cc(C(F)(F)F)ccc1SC1CCCC1 | 174 to 176 °C |
| Cc1cc(CNCc2cc(C)c(O)c(C)c2)cc(C)c1O | 249 to 251 °C |
| Cc1nc(N(C)C)sc1C=O | 116 to 118 °C |
| O=C(O)CSc1nccn1-c1ccc(C(F)(F)F)cc1 | 119 to 121 °C |
| Cc1cc(C)cc(N2CCC(C(=O)O)C2=O)c1 (configuration not stated) | 115 to 117 °C |
| O=C(O)c1ccc(OC2CCCCC2)cc1 | 184 to 186 °C |
| NC(CCN1CCCCC1)=NO | 137 to 139 °C |
| CC(C)(C)OC(=O)N1CCN(CC#N)CC1 | 79 to 81 °C |
| NNC(=O)Nc1ccc(C(=O)O)cc1 | 192 to 194 °C |
| O=C(O)c1ccc(CNC(=O)C2CCCC2)cc1 | 228 to 230 °C |
| Nc1nc(CCl)nc2sc3c(c12)CCCCC3 | 174 to 176 °C |

| SMILES | melting point |
| --- | --- |
| CCOC(=O)c1c[nH]n(C)c1=N | 95 to 97 °C |
| CC(C)c1nnc(CCC(=O)O)o1 | 84 to 86 °C |
| Cc1ccc(C(=O)O)cc1N1C(=O)C2CC=CCC2C1=O (configuration not stated) | 221 to 223 °C |
| CNc1ccc(S(C)(=O)=O)cc1 | 126 to 128 °C |
| CCOc1cccnc1C(=O)O | 130 to 132 °C |
| Cc1cc(C(=O)CCl)c(C)n1CCC(C)C | 55 to 57 °C |
| O=C1NCCCN2CCCC12 (configuration not stated) | 120 to 122 °C |
| CC(Oc1ccc(F)cc1Br)C(=O)O (configuration not stated) | 87 to 89 °C |
| CN1CCCCC/C1=N\S(=O)(=O)c1cccc(N)c1 | 172 to 174 °C |
| COc1nc(Cl)ncc1Br | 76 to 78 °C |
| COC(=O)CN1CCC(C(N)=O)CC1 | 126 to 128 °C |
| N#CCc1cccnc1Cl | 80 to 82 °C |
| O=C(O)C(c1ccc(Br)cc1)N1CCCC1 (configuration not stated) | 214 to 216 °C |
| Cc1ccc(Br)cc1S(N)(=O)=O | 139 to 141 °C |
| O=C(O)c1csc(-c2ncccn2)n1 | 217 to 219 °C |
| CC1CCCN(S(=O)(=O)c2ccc(N)cc2)C1 (configuration not stated) | 129 to 131 °C |
| Nc1ccc(NS(=O)(=O)c2ccc3c(c2)OCCO3)cc1 | 176 to 178 °C |
| CCOC(=O)Cc1nn[nH]n1 | 120 to 127 °C |
| CCOC(=O)c1ccncc1N | 173 to 175 °C |
| COC(=O)c1ccc(N)cc1F | 109 to 111 °C |
| Cc1ccnc2[nH]c(CCl)nc12 | 274 to 276 °C |
| CC(C)(C(=O)O)S(=O)(=O)c1ccc(Br)cc1 | 162 to 164 °C |

The next lines start with the values.

| melting point | SMILES |
| --- | --- |
| 73 to 75 °C | COc1ccc(C)cc1NC(=O)CCl |
| 72 to 74 °C | Cc1ccc(-c2csc(CN)n2)cc1 |
| 156 to 158 °C | O=C(O)CCC(=O)NCC(=O)c1ccccc1F |
| 185 to 187 °C | O=C(O)c1cc(-c2ccc(Cl)cc2)on1 |
| 151 to 153 °C | CCc1ccc(S(C)(=O)=O)cc1C(=O)O |
| 125 to 127 °C | CC1CCN(C(=O)CCl)c2ccccc2S1 (configuration not stated) |
| 54 to 56 °C | O=C(O)C1CCc2ccccc21 (configuration not stated) |
| 192 to 194 °C | CCCCc1nc2cc(NC(C)=O)ccc2[nH]1 |
| 90 to 92 °C | Fc1ccc2c(Cl)ncnc2c1 |
| 112 to 114 °C | O=C1N(Cc2ccccc2)CCN1S(=O)(=O)Cl |
| 88 to 90 °C | CCCOc1cccc(CC(=O)O)c1 |
| 81 to 83 °C | NCC(=O)Nc1ccccc1[N+](=O)[O-] |
| 123 to 125 °C | O=C(Nc1ccccc1)c1cccc(CCl)c1 |
| 286 to 288 °C | O=C(O)c1c[nH]nc1-c1ccccc1 |
| 72 to 74 °C | Cc1nc(-c2cccnc2)nc(Cl)c1C |
| 145 to 147 °C | Cc1nc2ccccc2n1N |
| 34 to 36 °C | Clc1ccc(-n2cccn2)c(Cl)c1 |
| 185 to 187 °C | O=C(O)c1ccc(COc2ccccc2Br)cc1 |
| 149 to 151 °C | O=C(O)c1nc(Cl)ccc1F |
| 317 to 319 °C | CC(C)NC(=O)Nc1ccccc1N |
| 81 to 83 °C | O=[N+]([O-])c1ccc(CO)c(Br)c1 |
| 65 to 68 °C | CCCOc1ccc2ccccc2c1C=O |
| 185 to 187 °C | Cc1ccc(C)n1-c1ccsc1C(=O)O |
| 162 to 164 °C | Cc1ccc(N(C)S(=O)(=O)c2cccc(C(=O)O)c2)cc1 |
| 169 to 171 °C | O=C1CCCc2c1[nH]c1ccccc21 |
| 61 to 63 °C | Nc1cccc(-c2ncco2)c1 |
| 180 to 182 °C | COc1ccc2c(-c3ccccc3)cc(S)nc2c1 |

| melting point | SMILES |
| --- | --- |
| 145 to 147 °C | O=C(O)Cc1cn(-c2ccccc2)nc1-c1ccc(F)cc1 |
| 259 to 261 °C | Nc1nc2ccccc2n1N |
| 308 to 310 °C | O=C(O)c1ccc(-n2nnc3ccccc32)cc1 |
| 57 to 59 °C | COc1ccccc1C(O)c1ccccn1 (configuration not stated) |
| 215 to 217 °C | O=C(O)c1cc(-c2cccc(Br)c2)nc2ccccc12 |
| 139 to 141 °C | Cc1cnc2ccccc2c1N |
| 96 to 98 °C | CC(NC(=O)CCC(=O)O)C(=O)c1ccccc1 (configuration not stated) |
| 53 to 55 °C | Clc1sc2ccccc2c1Cl |
| 114 to 116 °C | Cn1cnnc1-c1ccccc1 |
| 128 to 130 °C | O=C(CCl)/N=c1\sccn1Cc1ccc(Cl)cc1Cl |
| 141 to 143 °C | O=C(O)c1ccccc1C(=O)c1cccs1 |
| 190 to 192 °C | CC(=O)Nc1cc2ccccc2cc1C(=O)O |
| 65 to 67 °C | Cc1nnc(C2Cc3ccccc3CN2)o1 (configuration not stated) |
| 161 to 164 °C | COc1ccccc1NC(=O)c1cc2ccccc2cc1O |
| 256 to 258 °C | O=C(O)C=Cc1ccnc2ccccc12 |
| 68 to 70 °C | ClCCc1ncc(-c2ccccc2)o1 |
| 200 to 202 °C | c1ccc2sc(C3CCCCN3)nc2c1 (configuration not stated) |
| 126 to 128 °C | O=C1CCC(O)(c2ccccc2)CC1 |
| 128 to 130 °C | C(=C\c1ccncc1)/c1ccccc1 |
| 82 to 84 °C | Cc1nc(N)sc1Cc1cccc(F)c1 |
| 62 to 64 °C | Nc1cccc(-c2nccs2)c1 |
| 111 to 113 °C | CC(C)(C)c1nc2cc(N)ccc2o1 |
| 140 to 142 °C | Nc1ncc(Cc2cccc(Cl)c2Cl)s1 |
| 144 to 146 °C | Cc1cc(CO)c2ccccc2n1 |
| 163 to 165 °C | O=C(O)c1cc([N+](=O)[O-])ccc1SCCO |
| 152 to 154 °C | CCOC(=O)C1=C(CC)Nc2ccccc2N=C1N |
